What is called IC50 is the concentration that inhibits the measured activity by half. In general, EC50 refers to the concentration needed to bring the measured effect to its halfway point.

In patent US10618903B2, “Heteroaryl substituted aminopyridine compounds” (BRISTOL-MYERS SQUIBB COMPANY, priority 2015, dated 2020) one finds IC50 and EC50 data, which are given here for 27 compounds.

In test [1] the target is IRAK4 (Homo sapiens (Human), UniProt Q9NWZ3). Briefly: IRAK4 Inhibition Assay. The class given is biochemical. The settings on record: ATP 500 μM; IRAK4 0.6 nM. The method, then:
The assays were performed in U-bottom 384-well plates. The final assay volume was 30 μL prepared from 15 μL additions of enzyme and substrates (fluoresceinated peptide and ATP) and test compounds in assay buffer (20 mM HEPES pH 7.2, 10 mM MgCl2, 0.015% Brij 35 and 4 mM DTT). The reaction was initiated by the combination of IRAK4 with substrates and test compounds. The reaction mixture was incubated at room temperature for 60 min. and terminated by adding 45 μL of 35 mM EDTA to each sample. The reaction mixture was analyzed on the Caliper LABCHIP® 3000 (Caliper, Hopkinton, Mass.) by electrophoretic separation of the fluorescent substrate and phosphorylated product. Inhibition data were calculated by comparison to no enzyme control reactions for 100% inhibition and vehicle-only reactions for 0% inhibition. The final concentrations of reagents in the assays are ATP, 500 μM; FL-IPTSPITTTYFFFKKK peptide 1.5 μM; IRAK4, 0.6 nM; and DMSO, 1.6%.

Test [2] relates to IL-6 levels in human whole blood stimulated with a TLR2 agonist. As to the kind of experiment: IRAK4 Whole Blood Assay (lipoteichoic acid/TLR2-stimulated IL-6). The class given is cell-based. To be noted: lipoteichoic acid 10 μg/mL, IL-6 readout. The procedure: Human whole blood containing the anti-coagulant ACD-A was plated in 384-well plate (25 μL/well) and incubated with compounds for 60 minutes at 37° C. in a 5% CO2 incubator. The blood was stimulated with a TLR2 agonist, 10 μg/mL final concentration of lipoteichoic acid (Invivogen, San Diego, Calif.) in 25 μL RPMI (Gibco) for 5 hours in a 5% CO2 incubator. At the end of the incubation, plates were centrifuged at 2300 rpm for 5 minutes. Supernatants were harvested and analyzed for IL-6 levels by Flow Cytometry beads assay (BD Biosciences, San Jose, Calif.).

Sequence of IRAK4 (Q9NWZ3 whole entry): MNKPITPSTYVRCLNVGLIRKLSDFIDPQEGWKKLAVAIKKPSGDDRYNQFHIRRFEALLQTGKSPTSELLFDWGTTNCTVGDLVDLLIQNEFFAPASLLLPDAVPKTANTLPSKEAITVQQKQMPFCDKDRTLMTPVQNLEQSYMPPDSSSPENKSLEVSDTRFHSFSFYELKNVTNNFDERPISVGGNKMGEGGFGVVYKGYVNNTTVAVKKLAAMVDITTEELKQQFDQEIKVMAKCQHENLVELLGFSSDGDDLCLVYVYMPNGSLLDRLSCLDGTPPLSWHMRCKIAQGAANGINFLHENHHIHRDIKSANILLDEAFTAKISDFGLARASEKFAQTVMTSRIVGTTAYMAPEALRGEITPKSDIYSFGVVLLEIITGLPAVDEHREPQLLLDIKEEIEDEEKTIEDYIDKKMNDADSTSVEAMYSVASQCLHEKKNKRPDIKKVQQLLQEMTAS

`CC(C)(O)[C@H](F)CNC(=O)c1cnc(-c2cnn3cc(Cl)cnc23)cc1NC1CCCOC1` (single isomer, unassigned) [Example 3]: the IC50 in test [1] came to 6 nM. Besides, the EC50 in test [2] (Homo sapiens) came out at 380 nM.

Regarding `CC(C)(O)[C@H](F)CNC(=O)c1cnc(-c2cnn3cc(Cl)cnc23)cc1NC1CCCOC1` (single isomer, unassigned) [Example 4], the IC50 in test [1] was determined as 13 nM. In addition, a half-maximal response in test [2] (EC50) required 680 nM.

In the case of `COC1CC(Nc2cc(-c3cnn4cc(Cl)cnc34)ncc2C(=O)NC[C@@H](F)C(C)(C)O)CC1(F)F` (single isomer, unassigned) [Example 13], the IC50 in test [1] was 7 nM. In test [2] (Homo sapiens), this compound registered a 50% effective concentration (EC50) of 4450 nM.

For `CC(C)OC1CC(Nc2cc(-c3cnn4cc(Cl)cnc34)ncc2C(=O)NC[C@@H](F)C(C)(C)O)CC1(F)F` (single isomer, unassigned) [Example 16], the IC50 in test [1] stood at 6 nM. The compound further displayed an EC50 in test [2] of 1090 nM.

For `CC(C)(O)[C@H](F)CNC(=O)c1cnc(-c2cnn3cc(Cl)cnc23)cc1NC1COCC1(F)F` (single isomer, unassigned) [Example 18], the IC50 in test [1] was determined as 8 nM. Moreover, a half-maximal response in test [2] (Homo sapiens) (EC50) required 1150 nM.

Take `CC(C)(O)[C@H](F)CNC(=O)c1cnc(-c2cnn3cc(C#N)cnc23)cc1NC1CCCOC1` (single isomer, unassigned) [Example 94]: in test [1], the IC50 was 10 nM. The compound further yielded an EC50 in test [2] of 370 nM.

Regarding `CC(C)(O)[C@H](F)CNC(=O)c1cnc(-c2cnn3cc(C#N)cnc23)cc1NC1CCCOC1` (single isomer, unassigned) [Example 95], the 50% inhibitory concentration (IC50) in test [1] amounted to 6 nM. For the same compound, a half-maximal effect in test [2] (EC50) was put at 1160 nM.

On to `CC(C)Nc1cc(-c2cnc3cc(C#N)cnn23)ncc1C(=O)NCC(F)C1CC(C)OC(C)C1` (single isomer, unassigned) [Example 176, 6-(7-cyanoimidazo[1,2-b]pyridazin-3-yl)-N-(2-(2,6-dimethyltetrahydro-2H-pyran-4-yl)-2-fluoroethyl)-4-(isopropylamino)nicotinamide], for which, in test [1], the IC50 came to 3 nM. The same compound gave an EC50 in test [2] (Homo sapiens) of 540 nM.

Take `CCC(C)Nc1cc(-c2cnn3cc(Cl)cnc23)ncc1C(=O)NC[C@@H](F)C(C)(C)O` (stereo in doubt) [Example 69, 4-(((R)-sec-butyl)amino)-6-(6-chloropyrazolo[1,5-a]pyrimidin-3-yl)-N—((R)-2-fluoro-3-hydroxy-3-methylbutyl)nicotinamide]: the IC50 in test [1] was 2 nM. In addition, in test [2] (Homo sapiens), the EC50 was determined as 3170 nM.

Regarding `CC(C)(CO)Nc1cc(-c2cnn3cc(Cl)cnc23)ncc1C(=O)NC[C@@H](F)C(C)(C)O` [Example 7, (R)-6-(6-chloropyrazolo[1,5-a]pyrimidin-3-yl)-N-(2-fluoro-3-hydroxy-3-methylbutyl)-4-((1-hydroxy-2-methylpropan-2-yl)amino)nicotinamide], the IC50 in test [1] stood at 2 nM. The compound also gave a concentration for a half-maximal effect (EC50) in test [2] (Homo sapiens) of 570 nM.

In the case of `CC(C)Nc1cc(-c2cnn3cc(Cl)cnc23)ncc1C(=O)NCCC(C)(C)F` [Example 20, 6-(6-chloropyrazolo[1,5-a]pyrimidin-3-yl)-N-(3-fluoro-3-methylbutyl)-4-(isopropylamino)nicotinamide], in test [1], the IC50 came to 7 nM. In test [2] (Homo sapiens), this compound came in with an EC50 of 2530 nM.

In the case of `CC(C)Nc1cc(-c2cnc3cccnn23)ncc1C(=O)NC[C@@H](F)C(C)(C)O` [Example 21, (R)—N-(2-fluoro-3-hydroxy-3-methylbutyl)-6-(imidazo[1,2-b]pyridazin-3-yl)-4-(isopropylamino)nicotinamide], the IC50 in test [1] worked out at 7 nM. In addition, the half-maximal effective concentration (EC50) in test [2] amounted to 2530 nM.

With `CNC(=O)[C@H]1CC[C@H](NC(=O)c2cnc(-c3cnn4cc(Cl)cnc34)cc2NC2CC2)CC1` [Example 25, 6-(6-chloropyrazolo[1,5-a]pyrimidin-3-yl)-4-(cyclopropylamino)-N-((1r,4r)-4-(methylcarbamoyl)cyclohexyl)nicotinamide], in test [1], the IC50 stood at 5 nM. In test [2] (Homo sapiens), the midpoint of the response, the EC50, lay at 460 nM.

`CNC(=O)[C@H]1CC[C@H](NC(=O)c2cnc(-c3cnn4cc(Cl)cnc34)cc2NC(C)C)CC1` [Example 27, 6-(6-chloropyrazolo[1,5-a]pyrimidin-3-yl)-4-(isopropylamino)-N-((1r,4r)-4-(methylcarbamoyl)cyclohexyl) nicotinamide]: the IC50 in test [1] was determined as 7 nM. In addition, it took 1050 nM to reach a half-maximal effect in test [2] (Homo sapiens) (EC50).

Consider `CC(C)Nc1cc(-c2cnn3cc(Cl)cnc23)ncc1C(=O)N[C@H]1CC[C@H](C(=O)NC2CC2)CC1` [Example 28, 6-(6-chloropyrazolo[1,5-a]pyrimidin-3-yl)-N-((1r,4r)-4-(cyclopropylcarbamoyl)cyclohexyl)-4-(isopropylamino)nicotinamide], for which the IC50 in test [1] was 5 nM. Further, it took 1920 nM to reach a half-maximal effect in test [2] (Homo sapiens) (EC50).

As to `CC(C)(O)[C@H](F)CNC(=O)c1cnc(-c2cnn3cc(C#N)cnc23)cc1Nc1ccc(C(N)=O)cc1` [Example 112, (R)-4-((4-carbamoylphenyl)amino)-6-(6-cyanopyrazolo[1,5-a]pyrimidin-3-yl)-N-(2-fluoro-3-hydroxy-3-methylbutyl)nicotinamide], the response in test [2] (Homo sapiens) was half-maximal at 820 nM (EC50).

Regarding `COc1ccc2ncc(-c3cc(NC(C)C)c(C(=O)NC[C@@H](F)C(C)(C)O)cn3)n2n1` [Example 149, (R)—N-(2-fluoro-3-hydroxy-3-methylbutyl)-4-(isopropylamino)-6-(6-methoxyimidazo[1,2-b]pyridazin-3-yl) nicotinamide], the IC50 in test [1] turned out to be 18 nM.

Turning to `CC(C)Nc1cc(-c2cnc3ccc(N)nn23)ncc1C(=O)NC[C@@H](F)C(C)(C)O` [Example 150, (R)-6-(6-aminoimidazo[1,2-b]pyridazin-3-yl)-N-(2-fluoro-3-hydroxy-3-methylbutyl)-4-(isopropylamino)nicotinamide], the IC50 in test [1] worked out at 12 nM.

In the case of `CC(C)Nc1cc(-c2cnc3ccc(NCC(C)(C)O)nn23)ncc1C(=O)NC[C@@H](F)C(C)(C)O` [Example 151, (R)—N-(2-fluoro-3-hydroxy-3-methylbutyl)-6-(6-((2-hydroxy-2-methylpropyl)amino)imidazo[1,2-b]pyridazin-3-yl)-4-(isopropylamino)nicotinamide], in test [1], the IC50 turned out to be 11 nM.

Regarding `CC(C)Nc1cc(-c2cnc3ccc(N4CC[C@@H](O)C4)nn23)ncc1C(=O)NC[C@@H](F)C(C)(C)O` [Example 152, N—((R)-2-fluoro-3-hydroxy-3-methylbutyl)-6-(6-((R)-3-hydroxypyrrolidin-1-yl)imidazo[1,2-b]pyridazin-3-yl)-4-(isopropylamino)nicotinamide], in test [1], the IC50 worked out at 29 nM.

For `COc1cnn2c(-c3cc(NC(C)C)c(C(=O)NC[C@@H](F)C(C)(C)O)cn3)cnc2c1` [Example 153, (R)—N-(2-fluoro-3-hydroxy-3-methylbutyl)-4-(isopropylamino)-6-(7-methoxyimidazo[1,2-b]pyridazin-3-yl)nicotinamide], the IC50 in test [1] was 13 nM.

With `COc1cnn2c(-c3cc(NC4COC4)c(C(=O)NC[C@@H](F)C(C)(C)O)cn3)cnc2c1` [Example 154, (R)—N-(2-fluoro-3-hydroxy-3-methylbutyl)-6-(7-methoxyimidazo[1,2-b]pyridazin-3-yl)-4-(oxetan-3-ylamino)nicotinamide], the IC50 in test [1] came to 16 nM.

In the case of `CC(C)Nc1cc(-c2cnc(-c3cccc(C#N)c3)o2)ncc1C(=O)NC[C@@H](F)C(C)(C)O` [Example 155, (R)-6-(2-(3-cyanophenyl)oxazol-5-yl)-N-(2-fluoro-3-hydroxy-3-methylbutyl)-4-(isopropylamino)nicotinamide], in test [1], the IC50 was found to be 55 nM.

`CC(C)(C)Nc1cc(-c2cnc3cc(C#N)cnn23)ncc1C(=O)NC[C@@H](F)C(C)(C)O` [Example 187, (R)-4-(tert-butylamino)-6-(7-cyanoimidazo[1,2-b]pyridazin-3-yl)-N-(2-fluoro-3-hydroxy-3-methylbutyl)nicotinamide]: in test [2] (Homo sapiens), the EC50 amounted to 200 nM.

The compound `COC(C)(C)[C@H]1CC[C@H](NC(=O)c2cnc(-c3cnc4cc(Cl)cnn34)cc2NC2COC2)CC1` [Example 191, 6-(7-chloroimidazo[1,2-b]pyridazin-3-yl)-N-((1r,4r)-4-(2-methoxypropan-2-yl)cyclohexyl)-4-(oxetan-3-ylamino)nicotinamide] displayed an EC50 in test [2] (Homo sapiens) of 630 nM. This EC50 is about 3.1-fold higher than that of the compound before.

In test [2] (Homo sapiens), `CC(C)(O)[C@H](F)CNC(=O)c1cnc(-c2cnn3cc(C#N)cnc23)cc1Nc1ccn(CC(F)F)c1` [Example 225, (R)-6-(6-cyanopyrazolo[1,5-a]pyrimidin-3-yl)-4-((1-(2,2-difluoroethyl)-1H-pyrrol-3-yl)amino)-N-(2-fluoro-3-hydroxy-3-methylbutyl)nicotinamide] showed an EC50 of 80 nM.

As for `CC(C)(O)[C@H](F)CNC(=O)c1cnc(-c2cnn3cc(Cl)cnc23)cc1Nc1ccn(CC(F)F)c1` [Example 228, (R)-6-(6-chloropyrazolo[1,5-a]pyrimidin-3-yl)-4-((1-(2,2-difluoroethyl)-1H-pyrrol-3-yl)amino)-N-(2-fluoro-3-hydroxy-3-methylbutyl)nicotinamide], it took 250 nM to reach a half-maximal effect in test [2] (Homo sapiens) (EC50).
